Experiments:
filtration bleb [1] = details: previous rabbit studies; cited from earlier work
filtration bleb [2] = assay: Pilot light dosing of topical BPD-MA PDT during filtration surgery (Example 1); format: in vivo, rabbit
Method: Filtration surgery was performed on one eye in six normal rabbits. A Weck cell sponge was saturated with a 2 mg/mL aqueous solution of the photosensitizer benzoporphyrin derivative monoacid ring A (BPD-MA, also known as “BPD-verteporfin”). During surgery, the saturated Weck cell was used to apply BPD-MA topically for two minutes to the sclera and conjunctiva in the surgical field. After washing out the excess drug with BSS, both the sclera and conjunctiva were exposed to red light having a wavelength of about 690 nm, which was delivered by a light emitting diode (“LED”) placed at a distance of about 1 cm from the tissue to be irradiated. Each of the six rabbits used in this experiment received a different dose of light, specifically, 0, 3, 6, 12, 18 and 24 J/cm^2 over a 30-second to 4-minute time period. The treated rabbits were followed for 11-12 days after surgery by determining filtration bleb height, bleb vascularity (indicative of inflammation), and reduction in intraocular pressure (“IOP”). The data obtained on day 5 and day 11 are shown below in Tables 1A and 1B respectively.

filtration bleb [3] = assay: Times of PDT administration, full thickness filtration surgery (Example 2); format: in vivo, rabbit
Method: The photosensitizer used in the example was prepared as follows: A liposomally formulated benzoporphyrin derivative, monoacid ring A, BPD-MA or BPD-verteporfin was supplied by QLT PhotoTherapeutics, Inc. as a lyophilized powder and was reconstituted with sterile distilled water shortly before use. The BPD was reconstituted to 1.98 mg/mL was used to saturate the 3 mm cut end of a Weck cell. In control groups, the Weck cell was saturated with basic salt solution (“BSS”).
On day 0, full thickness filtration surgery was performed on one randomly selected eye in 48 rabbits, 12 in each of four groups. In each rabbit, the untreated other eye served as a control. The filtration procedure was performed in the following manner: Each animal was anesthetized with a mixture of ketamine and xylazine. A wire speculum was used to separate the eyelids. […] Following creation of the fornix-based flap, the Weck cell saturated with BPD-MA (or BSS placebo) was placed on the sclera posterior to the limbus where the fistula was to be created. The conjunctiva was draped over the Weck Cell. The Weck cell thus rested between the conjunctiva and sclera, also coming into contact with the episclera and Tenon's capsule, for two minutes. The Weck cell was then removed and the area was irrigated with BSS. Instruments and gloves were also rinsed before entering the eye, and a 1.0 mm trephine was used to enter the anterior chamber.
The conjunctival flap was then secured to the limbus using two 7-0 vicryl sutures. […] The light source was used at a maximum output ([…]), which provided a total dosage of approximately 7.2 J.
A drop of tobramycin was then placed into each eye following surgery. Tobramycin and prednisolone acetate were instilled in both eyes four times a day for one week following surgery.
(§1) The control eye received the same photosensitizer and irradiation subconjunctivally as the surgical eye, but without a fistula being created. The control eye was used to test toxicity and as a basis for detecting a decrease in IOP for the surgical eye. The time at which the BPD-MA was applied was varied, as follows:
BPD treatment at 48 hours post surgery consisted of the application of the 3 mm cut end of a Weck cell saturated with a 2 mg/mL aqueous solution of BPD-MA (or placebo) laid on the conjunctiva over the filtration bleb for two minutes, followed by washing out the excess photosensitizer and exposure to red LED light having a wavelength of 688 nm for one minute.
(§2) Postoperatively at day 0 and every two days following surgery, the rabbits were examined with slit lamp biomicroscopy to evaluate filtration bleb extent, filtration bleb height, conjuctival erythema over the bleb, anterior chamber cell flare, and anterior chamber depth. Applanation tonometry to measure IOP following topical anesthesia. A subjective ocular discomfort assessment was also performed by determining animal comfort and eating habits, in accordance with the grading scale shown below:
Bleb survival was assessed by the extent and height of the bleb and by IOP as compared with the control eye. The degree of the inflammatory response was determined by erythema over the filtration bleb and was scored on a scale of 0-3. Rabbits were terminated when bleb failure was noted, i.e., when the intraocular pressure in the surgical eye equaled that of the control eye and the filtration bleb was flat.

filtration bleb [4] = format: in vivo
Method: At day 7, one rabbit from each group and, following bleb failure, two rabbits from each group, were sacrificed to undergo histologic and transmission electron microscopic (“TEM”) analysis. Histologic evaluation was performed after first fixing the cadaver eyes with 10% buffered neutral formalin. The eyes were processed, sectioned, and then stained with hematoxylin and eosin, as well as Masson's Trichrome. The specimens were examined in a masked fashion by an independent observer.
Transmission electron microscopy was performed by fixing tissue samples in 2.5% glutaraldehyde buffered with 0.1 M cacodylate containing 7% sucrose. Tissues were post fixed for one hour with 2% osmium tetroxide and dehydrated through graded alcohol concentrations to 100% ethanol. The 2×5 mm tissue blocks were then infiltrated with catalyzed epoxy resin. Thick sections (0.5 μm) were cut and stained with toluidine blue and examined by light microscopy to determine appropriate areas. Thin section (80 nm) were then cut, picked up on copper grids, and stained with uranyl acetate and lead citrate for TEM evaluation. A Hitachi H7000 transmission electron microscope was used to examine these sections.

control eye = assay: Toxicity: control eye examination and adverse events (Example 2); format: in vivo, rabbit; details: for Fibrin clot within the first four days: resolved without sequelae by end of first week
Description: as §1, §2
In FIGS. 3, 4 and 5, a statistical difference was observed between groups (P ,0.001). The bleb height and extent, as well as other slit lamp characteristics, were analyzed by a chi-square test. Adverse events also were analyzed by a chi-square test. A Cox Proportional Hazard Model was used to evaluate for parameters that most accurately predicted filtration bleb survival on each examination day.

patients [5] = details: human, in vivo; cited from earlier work
ocular fibroblasts = details: cited from earlier work
bleb scarring = details: in vivo; cited from earlier work
patients [6] = details: topical ointment postoperatively; cited from earlier work
[7] = postoperative day 5, irradiation time 30 seconds
[8] = postoperative day 5, irradiation time 1 minute
[9] = postoperative day 5, irradiation time 2 minutes
[10] = postoperative day 5, irradiation time 3 minutes
[11] = postoperative day 11, irradiation time 30 seconds
[12] = postoperative day 11, irradiation time 1 minute
[13] = postoperative day 11, irradiation time 2 minutes
[14] = postoperative day 11, irradiation time 3 minutes
[15] = day 7, eyes that received BPD at surgery

Bleomycin
Filtration Bleb Survival (mean days ± SD) (filtration bleb [1]): 25.5 ± 14.5 days | Filtration Bleb Survival [range] (filtration bleb [1]): 21 to 50 days

O=c1[nH]cc(F)c(=O)[nH]1 [5-Fluorouracil]
Filtration Bleb Survival (mean days ± SD) (filtration bleb [1]): 19.5 ± 5.5 days | Filtration Bleb Survival [range] (filtration bleb [1]): 14 to 25 days

benzoporphyrin derivative monoacid ring A [BPD-MA]
Survival of the filtration bleb versus light dose (filtration bleb [2]; light doses 0-24 J/cm^2): longest in eyes treated with light at a medium range of doses | Bleb Height (filtration bleb [2]; [7]): Small | Bleb Vascularity (filtration bleb [2]; [7]): Vascular | IOP Decrease (filtration bleb [2]; postoperative day 5, irradiation time 30 seconds, 2 mg/mL topical 2 min, 690 nm light): Minimal | Bleb Height (filtration bleb [2]; [8]): Maximum | Bleb Vascularity (filtration bleb [2]; [8]): Avascular | IOP Decrease (filtration bleb [2]; postoperative day 5, irradiation time 1 minute, 2 mg/mL topical 2 min, 690 nm light): >20 mm Hg | Bleb Height (filtration bleb [2]; [9]): Maximum | Bleb Vascularity (filtration bleb [2]; [9]): Avascular' | IOP Decrease (filtration bleb [2]; postoperative day 5, irradiation time 2 minutes, 2 mg/mL topical 2 min, 690 nm light): 20 mm Hg | Bleb Height (filtration bleb [2]; [10]): Small | Bleb Vascularity (filtration bleb [2]; [10]): Vascular | IOP Decrease (filtration bleb [2]; postoperative day 5, irradiation time 3 minutes, 2 mg/mL topical 2 min, 690 nm light): 2.5 mm Hg | Bleb Vascularity (filtration bleb [2]; postoperative day 5, irradiation time 4 minutes): Vascular | IOP Decrease (filtration bleb [2]; postoperative day 5, irradiation time 4 minutes, 2 mg/mL topical 2 min, 690 nm light): 0-4 mm Hg | Bleb Height (filtration bleb [2]; [11]): Minimal | Bleb Vascularity (filtration bleb [2]; [11]): Vascular | IOP Decrease (filtration bleb [2]; [11]): 2.3 mm Hg | Bleb Height (filtration bleb [2]; [12]): Maximum | Bleb Vascularity (filtration bleb [2]; [12]): Avascular | IOP Decrease (filtration bleb [2]; [12]): >20 mm Hg | Bleb Height (filtration bleb [2]; [13]): Maximum | Bleb Vascularity (filtration bleb [2]; [13]): Avascular' | IOP Decrease (filtration bleb [2]; [13]): >20 mm Hg | Bleb Height (filtration bleb [2]; [14]): Low | Bleb Vascularity (filtration bleb [2]; [14]): Vascular | IOP Decrease (filtration bleb [2]; [14]): 3-4 mm Hg | Bleb outcome (rabbit sacrificed) (filtration bleb [2]; postoperative day 11, irradiation time 4 minutes): bleb failure | Inflammatory response (erythema over the bleb) (filtration bleb [3]; BPD and light at relatively low doses, especially during surgery): prevented the development of inflammation | Bleb survival in comparison with placebo control or treatment only at 48 hours (filtration bleb [3]; BPD and light during surgery (Groups 2 and 4)): prolonged bleb survival | IOP (ANOVA) (filtration bleb [3]; BPD given intraoperatively, P=0.057): trend toward lower IOP | Mean (±SD) filtration bleb survival time (filtration bleb [3]; Group 2: BPD treatment during surgery, placebo 48 hours post surgery): 23.8 ± 12 days | Erythema over the bleb (filtration bleb [3]; Group 3 (BPD only at 48 hours), FIG. 5): higher inflammatory response | Mean (±SD) filtration bleb survival time (filtration bleb [3]; Group 3: placebo during surgery, BPD treatment 48 hours post surgery): 10.1 ± 9 days | Effect of second treatment with BPD and light at 48 hours (filtration bleb [3]; Group 4): did not appear to have any additional effect | Mean (±SD) filtration bleb survival time (filtration bleb [3]; Group 4: BPD treatment during surgery and 48 hours post surgery): 23.2 ± 8 days | Extent and height of the bleb (filtration bleb [3]; up to 12 days postoperatively, FIG. 3, FIG. 4): indicated the effectiveness of low-dose PDT treatment during surgery | Filtration bleb survival compared to previous rabbit studies (filtration bleb [3]; versus Table 2 literature values): prolonged the filtration bleb survival compared to normal controls, Ara-A and 5-fluorouracil | Life of the filtration bleb compared with mitomycin C studies (filtration bleb [3]; versus literature): longer that in some rabbits who received mitomycin C | Light microscopy of filtering bleb (filtration bleb [4]; day 7, BPD only at day 2 (Group 3)): increased lymph channels in addition to the fibroblasts, but no vascular proliferation | Light microscopy of filtering bleb: fibroblasts, vessels, lymph channels (filtration bleb [4]; [15]): no fibroblasts, vascular increase or lymphocytic channel increase | Light microscopy of filtering bleb: lymphocytic response (filtration bleb [4]; [15]): mild lymphocytic response | Histology of eye fistulas (filtration bleb [4]; end of the study (three weeks postoperatively)): only a few lymphocytes and no proliferation of blood vessels at the fistula | Epithelium finding (filtration bleb [4]; rabbit, in vivo): thinned epithelium | Histologic and transmission electron microscopic analysis for toxicity (filtration bleb [4]; surgical or control eye): no evidence of toxicity or inflammation apart from the filtration site | Fibrin clot within the first four days (control eye; Group 2): three | Fibrin clot within the first four days (control eye; Group 3): three | Adverse events (control eye; all groups): few and not related specifically to the use of the photosensitizer | Anterior segment ocular exam of control eye, placebo versus BPD-treated (control eye; control eye, P>0.05): no differences between the placebo and BPD-treated eyes

Nc1ncnc2c1ncn2[C@@H]1O[C@H](CO)[C@@H](O)[C@@H]1O [Ara-A]
Filtration Bleb Survival (mean days ± SD) (filtration bleb [1]): 15.2 ± 1.8 days

CO[C@@]12[C@H](COC(N)=O)C3=C(C(=O)C(C)=C(N)C3=O)N1C[C@@H]1N[C@@H]12 [Mitomycin-C]
Filtration Bleb Survival (mean days ± SD) (filtration bleb [1]): 34.8 ± 28.8 days | Filtration Bleb Survival [range] (filtration bleb [1]): 6 to 23.2 days | Ocular hypotony (IOP less than 5 or 6 mm Hg), fraction of patients treated (patients [5]): ⅓ | Probability of late-onset bleb leaks (patients [5]): around 25%

O=c1[nH]c(=O)n([C@H]2C[C@H](O)[C@@H](CO)O2)cc1F [floxuridine]
Potency relative to fluorouracil in long-term inhibition of ocular fibroblasts (ocular fibroblasts): about 100 times

CC(C)(S)[C@@H](N)C(=O)O [D-penicillamine]
Potency in animal studies (bleb scarring): only limited potency

N#CCCN [BAPN, Beta-aminopropionitrite]
Patients with IOP kept below 22 mm Hg (patients [6]): 74% | Potency in animal studies (bleb scarring): only limited potency

Source: US6677366B2, “Methods, compositions and articles for reducing or preventing the effects of inflammation” (QLT Inc., priority 1997, dated 2004)
